# ChEMBL document CHEMBL3714716, “Modulators of the relaxin receptor 1” (2015)
# Active and inactive are the calls of the source. No cut-off for these calls is given here.
# Key:
# Relaxin receptor 1 = molecular target: T1, Relaxin receptor 1 (Homo sapiens, UniProt Q9HBX9); test: Agonist activity at RXFP1 receptor (unknown origin) expressed in HEK293 cells assessed as stimulation of cAMP production incubated for 30 mins by TR-FRET based HTRF assay; type: functional, cell-based
# T1 sequence (Q9HBX9 whole entry): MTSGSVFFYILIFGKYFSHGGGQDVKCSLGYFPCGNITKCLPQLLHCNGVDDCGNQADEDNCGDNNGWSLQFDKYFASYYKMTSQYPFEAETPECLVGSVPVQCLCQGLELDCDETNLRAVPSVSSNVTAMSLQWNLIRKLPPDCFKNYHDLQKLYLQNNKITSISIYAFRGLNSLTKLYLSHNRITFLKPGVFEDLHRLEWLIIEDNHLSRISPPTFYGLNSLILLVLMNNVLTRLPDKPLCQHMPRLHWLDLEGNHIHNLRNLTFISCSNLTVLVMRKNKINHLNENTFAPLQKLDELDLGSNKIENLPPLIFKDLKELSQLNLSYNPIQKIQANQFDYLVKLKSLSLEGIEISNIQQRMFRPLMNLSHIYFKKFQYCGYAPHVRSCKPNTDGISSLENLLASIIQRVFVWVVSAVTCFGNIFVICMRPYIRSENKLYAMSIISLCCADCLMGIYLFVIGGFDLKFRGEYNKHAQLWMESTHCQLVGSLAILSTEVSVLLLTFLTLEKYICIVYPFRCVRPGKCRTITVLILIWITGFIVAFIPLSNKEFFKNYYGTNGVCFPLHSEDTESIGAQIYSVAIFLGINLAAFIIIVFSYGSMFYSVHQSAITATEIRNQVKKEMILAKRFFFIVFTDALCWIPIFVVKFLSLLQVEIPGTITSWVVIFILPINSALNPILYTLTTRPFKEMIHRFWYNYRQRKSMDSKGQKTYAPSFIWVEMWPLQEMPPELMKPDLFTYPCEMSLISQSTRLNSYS
# [1] = molecular target: T2, Relaxin receptor 1 (Homo sapiens) (UniProt Q9HBX9); test: Agonist activity at RXFP1 receptor (unknown origin) expressed in HEK293 cells assessed as stimulation of cAMP production incubated for 30 mins by TR-FRET based HTRF assay relative to forskolin; type: functional, cell-based
# T2 sequence (whole entry): T1 sequence (Q9HBX9 whole entry)
Structure (SMILES),AC50 (Relaxin receptor 1; read-out: AC50),%max [1],AC50 (Relaxin receptor 1; hek293)
O=C(Nc1ccccc1C(=O)Nc1cccc(C(F)(F)F)c1)c1ccccc1,1.32 µM,64%,–
O=C(NCc1ccco1)c1ccccc1NC(=O)C1CCCCC1,–,inactive,Not Active
O=C(Nc1cccc(C(F)(F)F)c1)c1ccccc1OCCN1CCNCC1,–,inactive,Not Active
O=C(Nc1ccccc1C(=O)Nc1cccc(C(F)(F)F)c1)c1cccc([N+](=O)[O-])c1,1.06 µM,84%,–
COc1ccccc1C(=O)Nc1ccccc1C(=O)Nc1cccc(S(C)(=O)=O)c1,6.66 µM,95%,–
COc1ccccc1C(=O)Nc1ccccc1C(=O)Nc1cccc(SC)c1,1.33 µM,94%,–
CC(C)(C)OC(=O)N1CCN(CCOc2ccccc2C(=O)Nc2cccc(C(F)(F)F)c2)CC1,–,inactive,Not Active
O=C(Nc1cccc(C(F)(F)F)c1)c1ccccc1NC(=O)c1ccccc1OC(F)(F)F,1.18 µM,96%,–
CCCCC(=O)Nc1ccccc1C(=O)Nc1cccc(C(F)(F)F)c1,5.29 µM,94%,–
O=C(Nc1cccc(C(F)(F)F)c1)c1ccccc1-c1ccccc1OCc1ccccc1,–,inactive,Not Active
O=C(Nc1cccc(C(F)(F)F)c1)c1ccccc1NC(=O)c1ccccc1OCCN1CCCCC1,2.65 µM,99%,–
C#Cc1cccc(NC(=O)c2ccccc2NC(=O)C2CCCCC2)c1,6.66 µM,85%,–
CCOc1ccccc1C(=O)Nc1cnccc1C(=O)Nc1cccc(S(=O)(=O)C(F)(F)F)c1,2.97 µM,99%,–
COc1ccccc1C(=O)Nc1ccccc1C(=O)Nc1cccc(C(F)(F)F)c1,0.334 µM,99%,–
O=C(Nc1ccccc1C(=O)Nc1cccc(C(F)(F)F)c1)c1cccc(Br)c1,1.67 µM,97%,–
O=CNc1ccccc1C(=O)Nc1cccc(C(F)(F)F)c1,47.1 µM,78%,–
O=C(Nc1cccc(Cl)c1)c1ccccc1NC(=O)C1CCCCC1,3.34 µM,89%,–
CC(C)(C)c1cccc(NC(=O)c2ccccc2NC(=O)C2CCCCC2)c1,2.65 µM,70%,–
O=C(Nc1cccc(C(F)(F)F)c1)c1ccc(NC(=O)C2CCCCC2)cc1,–,inactive,Not Active
O=C(Nc1cccc(SC(F)(F)F)c1)c1ccccc1NC(=O)C1CCCCC1,1.88 µM,90%,–
O=C(Nc1ccccc1Br)c1ccccc1NC(=O)C1CCCCC1,–,inactive,Not Active
O=C(Nc1ccc2c(c1)OCO2)c1ccccc1NC(=O)C1CCCCC1,74.7 µM,58%,–
COCCOc1ccccc1C(=O)Nc1cccc(C(F)(F)F)c1,–,inactive,Not Active
CCOc1ccccc1C(=O)Nc1ccccc1C(=O)Nc1cccc(I)c1,0.747 µM,96%,–

Structure (SMILES),AC50 (Relaxin receptor 1; read-out: AC50),%max [1],AC50 (Relaxin receptor 1; hek293)
COc1ccccc1Nc1ccccc1C(=O)Nc1cccc(C(F)(F)F)c1,4.71 µM,77%,–
Cc1ccccc1C(=O)Nc1ccccc1C(=O)Nc1cccc(C(F)(F)F)c1,4.2 µM,90%,–
CCOc1ccccc1C(=O)Nc1ccccc1-c1nc2cc(C(F)(F)F)ccc2[nH]1,149 µM,31%,–
COc1ccccc1C(=O)Nc1ccccc1C(=O)Nc1cccc(-c2cccs2)c1,–,inactive,Not Active
COc1cccc(C(=O)Nc2ccccc2C(=O)Nc2cccc(C(F)(F)F)c2)c1,1.88 µM,94%,–
CCOc1ccccc1C(=O)Nc1ccccc1C(=O)Nc1cccc(C(=N)N)c1,–,inactive,Not Active
COc1ccccc1C(=O)Nc1ccccc1C(=O)Nc1cccc(N2CCCCC2)c1,5.29 µM,77%,–
O=C(Nc1cccc(C(F)(F)F)c1)c1ccccc1NC(=O)C12CC3CC(CC(C3)C1)C2,4.71 µM,87%,–
O=C(Nc1ccccc1C(=O)Nc1cccc(C(F)(F)F)c1)c1ccccc1Br,7.47 µM,78%,–
CC(C)c1cccc(NC(=O)c2ccccc2NC(=O)C2CCCCC2)c1,5.29 µM,66%,–
CC1CCC(C(=O)Nc2ccccc2C(=O)Nc2cccc(C(F)(F)F)c2)CC1 (configuration not stated),2.36 µM,92%,–
CC(C)(C)c1ccc(NC(=O)c2ccccc2NC(=O)C2CCCCC2)cc1,–,inactive,Not Active
Cc1cccc(C(=O)Nc2ccccc2C(=O)Nc2cccc(C(F)(F)F)c2)c1,3.74 µM,92%,–
O=C(Nc1cccc(I)c1)c1ccccc1NC(=O)C1CCCCC1,2.97 µM,84%,–
O=C(Nc1cccc(S(=O)(=O)C(F)(F)F)c1)c1ccccc1NC(=O)C1CCCCC1,1.06 µM,87%,–
N#Cc1ccc(C(=O)Nc2ccccc2C(=O)Nc2cccc(C(F)(F)F)c2)cc1,1.67 µM,96%,–
O=C(Nc1ccccc1C(=O)Nc1cccc(C(F)(F)F)c1)c1ccc(Br)cc1,4.2 µM,93%,–
O=C(Nc1cccc(C(F)(F)F)c1)c1ccccc1NC(=O)C1CC1,8.38 µM,79%,–
O=C(Nc1cccc(C(F)(F)F)c1)c1ccccc1OCCN1CCOCC1,–,inactive,Not Active
O=C(Nc1cccc(C(F)(F)F)c1)c1ccccc1NC(=O)C1CCCCCC1,2.11 µM,75%,–
O=C(Nc1cccc(C(F)(F)F)c1)c1ccccc1OCCN1CCCCC1,–,inactive,Not Active
O=C(Nc1cccc(-c2ccccc2C(F)(F)F)c1)c1ccccc1NC(=O)C1CCCCC1,2.65 µM,74%,–
CCOc1ccccc1C(=O)Nc1ccccc1C(=O)Nc1cccc(SC(F)(F)F)c1,0.666 µM,98%,–
O=C(Nc1cccc([N+](=O)[O-])c1)c1ccccc1NC(=O)C1CCCCC1,5.93 µM,93%,–

Structure (SMILES),AC50 (Relaxin receptor 1; read-out: AC50),%max [1],AC50 (Relaxin receptor 1; hek293)
COc1cccc(NC(=O)c2ccccc2NC(=O)C2CCCCC2)c1,37.4 µM,74%,–
COc1ccccc1C(=O)N(C)c1ccccc1C(=O)N(C)c1cccc(C(F)(F)F)c1,–,inactive,Not Active
CCOc1ccccc1C(=O)Nc1ccccc1C(=O)Nc1cccnc1,149 µM,37%,–
O=C(Nc1cccc(C(F)(F)F)c1)c1ccccc1NCCc1ccccc1,9.4 µM,83%,–
O=C(Nc1cccc(C(F)(F)F)c1)c1ccccc1NCc1cccc(C(F)(F)F)c1,47.1 µM,71%,–
COc1ccccc1C(=O)Nc1ccc(C(=O)Nc2cccc(C(F)(F)F)c2)cc1,–,inactive,Not Active
O=C(Nc1cccc(C(F)(F)F)c1)c1ccccc1NC(=O)c1ccccc1Oc1ccccc1,0.747 µM,97%,–
O=C(Nc1ccccc1C(=O)Nc1cccc(C(F)(F)F)c1)c1ccc([N+](=O)[O-])cc1,1.49 µM,96%,–
CCOc1ccccc1C(=O)Nc1ccccc1C(=O)Nc1cccc(C#N)c1,0.666 µM,96%,–
CCOc1ccccc1C(=O)Nc1ncccc1C(=O)Nc1cccc(S(=O)(=O)C(F)(F)F)c1,1.67 µM,98%,–
CCOc1ccccc1C(=O)Nc1ccncc1C(=O)Nc1cccc(S(=O)(=O)C(F)(F)F)c1,0.747 µM,97%,–
Cc1ccc(C(=O)Nc2ccccc2C(=O)Nc2cccc(C(F)(F)F)c2)cc1,4.71 µM,85%,–
COc1ccccc1-c1ccccc1C(=O)Nc1cccc(C(F)(F)F)c1,–,inactive,Not Active
CCOc1ccccc1C(=O)Nc1ccccc1CNc1cccc(S(=O)(=O)C(F)(F)F)c1,2.65 µM,77%,–
CCOc1ccccc1-c1nc2ccccc2c(=O)n1-c1cccc(-c2nnn[nH]2)c1,149 µM,36%,–
COc1ccc(C(=O)Nc2ccccc2C(=O)Nc2cccc(C(F)(F)F)c2)cc1,9.4 µM,71%,–
CS(=O)(=O)c1cccc(NC(=O)c2ccccc2NC(=O)C2CCCCC2)c1,118 µM,34%,–
O=C(Nc1ccccc1C(=O)Nc1cccc(C(F)(F)F)c1)c1ccc(Cl)cc1,2.65 µM,95%,–
O=C(Nc1ccc2c(c1)CCC2)c1ccccc1NC(=O)C1CCCCC1,9.4 µM,46%,–
CCSc1ccccc1C(=O)Nc1ccccc1C(=O)Nc1cccc(S(=O)(=O)C(F)(F)F)c1,0.529 µM,95%,–
O=C(Nc1cccc(C(F)(F)F)c1)c1ccccc1NCc1ccccc1,47.1 µM,69%,–
CCOc1ccccc1C(=O)Nc1ccccc1C(=O)Nc1cccc(C(C)(C)C)c1,1.06 µM,93%,–
Cc1ccc(CNC(=O)c2ccccc2NC(=O)C2CCCCC2)o1,149 µM,31%,–
